Source: patent publication US11370774B2, “Substituted benzofuran, benzopyrrole, benzothiophene, and structurally related complement inhibitors” (BioCryst Pharmaceuticals, Inc., priority 2018, dated 2022)

molecular target: Factor D (Homo sapiens (Human), UniProt P00746); test: Factor D esterolytic assay (Z-Lys-SBzl substrate, DTNB, 405 nm); assay type: biochemical; settings: Z-Lys-SBzl 1.29 mM, pH 7.5, 10% DMSO, tested a minimum of three times, read-out: Measured Ki (IC50) Value for Compounds: IC50
Sequence (P00746 26-253): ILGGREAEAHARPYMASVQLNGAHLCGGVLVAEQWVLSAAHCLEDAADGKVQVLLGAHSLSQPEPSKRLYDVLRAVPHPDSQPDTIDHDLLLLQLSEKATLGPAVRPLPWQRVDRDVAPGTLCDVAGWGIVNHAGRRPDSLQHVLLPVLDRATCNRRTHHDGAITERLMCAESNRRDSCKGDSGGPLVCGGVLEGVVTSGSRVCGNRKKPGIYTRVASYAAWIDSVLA
Summary of the method: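 Human Factor D ([…]) with 1.29 mM Z-Lys-SBzl in 100 mM HEPES, 500 mM NaCl, pH 7.5, 10% DMSO; substrate added immediately or after room-temperature preincubation. Released thiol reacted with DTNB, rate followed at 405 nm for 600 sec, 690 nm background subtracted. IC50 from percent inhibition versus uninhibited rate, n≥3.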

| Structure (SMILES) | IC50 |
| --- | --- |
| CC(C)n1ccc2c(-c3cccc(CN)c3)cc(COc3ccc(F)cc3CC(=O)O)cc21 [Compound 474c, 2-(2-((4-(3-(aminomethyl)phenyl)-1-isopropyl-1H-indol-6-yl)methoxy)-5-fluorophenyl)acetic acid] | < 1000 nM |
| COc1ccc(OCc2cc(-c3cccc(CN)c3F)c3ccn(C(C)C)c3c2)c(CC(=O)O)c1 [Compound 475g, 2-(2-((4-(3-(aminomethyl)-2-fluorophenyl)-1-isopropyl-1H-indol-6-yl)methoxy)-5-methoxyphenyl)acetic acid] | < 1000 nM |
| COc1cccc(CC(=O)O)c1OCc1cc(-c2cccc(CN)c2)c2occc2c1 [Compound 476f, 2-(2-((7-(3-(aminomethyl)phenyl)benzofuran-5-yl)methoxy)-3-methoxyphenyl)acetic acid] | < 1000 nM |
| COCc1cc2cc(COc3cc(F)ccc3CC(=O)O)cc(-c3cccc(CN)c3)c2o1 [Compound 477c, 2-(2-((7-(3-(aminomethyl)phenyl)-2-(methoxymethyl)benzofuran-5-yl)methoxy)-4-fluorophenyl)acetic acid] | < 1000 nM |
| COCc1cc2cc(COc3cc(F)ccc3CC(=O)O)cc(-c3cccc(CN)c3F)c2o1 [Compound 478b, 2-(2-((7-(3-(aminomethyl)-2-fluorophenyl)-2-(methoxymethyl)benzofuran-5-yl)methoxy)-4-fluorophenyl)acetic acid] | < 1000 nM |
| CC(=O)c1ccc(CC(=O)O)c(OCc2cc(-c3cccc(CN)c3F)c3occc3c2)c1 [Compound 479d, 2-(4-acetyl-2-((7-(3-(aminomethyl)-2-fluorophenyl)benzofuran-5-yl)methoxy)phenyl)acetic acid] | < 1000 nM |

Other lines, results leading:

| IC50 | Structure (SMILES) |
| --- | --- |
| < 1000 nM | COc1ccc(CC(=O)O)c(OCc2cc(-c3cccc(CN)c3)c3oc(F)cc3c2)c1 [Compound 480c, 2-(2-((7-(3-(aminomethyl)phenyl)-2-fluorobenzofuran-5-yl)methoxy)-4-methoxyphenyl)acetic acid] |
| < 1000 nM | COc1ccc(CC(=O)O)c(OCc2cc(-c3cccc(CN)c3F)c3oc(F)cc3c2)c1 [Compound 481b, 2-(2-((7-(3-(aminomethyl)-2-fluorophenyl)-2-fluorobenzofuran-5-yl)methoxy)-4-methoxyphenyl)acetic acid] |
| < 1000 nM | COc1ccc(CC(=O)O)c(OCc2cc(-c3ccnc(CN)c3)c3occc3c2)c1 [Compound 482b, 2-(2-((7-(2-(aminomethyl)pyridin-4-yl)benzofuran-5-yl)methoxy)-4-methoxyphenyl)acetic acid] |
| < 1000 nM | COc1ccc(CC(=O)O)c(OCc2cc(-c3ccnc(CN)c3F)c3oc(F)cc3c2)c1 [Compound 483c, 2-(2-((7-(2-(aminomethyl)-3-fluoropyridin-4-yl)-2-fluorobenzofuran-5-yl)methoxy)-4-methoxyphenyl)acetic acid] |
| < 1000 nM | NCc1cccc(-c2cc(COc3cc(F)ccc3CC(=O)O)c(F)c3ccoc23)c1 [Compound 484c, 2-(2-((7-(3-(aminomethyl)phenyl)-4-fluorobenzofuran-5-yl)methoxy)-4-fluorophenyl)acetic acid] |
| < 1000 nM | NCc1cccc(-c2cc(COc3cc(F)ccc3CC(=O)O)c(F)c3ccoc23)c1F [Compound 485b, 2-(2-((7-(3-(aminomethyl)-2-fluorophenyl)-4-fluorobenzofuran-5-yl)methoxy)-4-fluorophenyl)acetic acid] |
| < 1000 nM | NCc1cccc(-c2cc(COc3cc(F)ccc3CC(=O)O)cc3c(C(F)(F)F)coc23)c1 [Compound 486c, 2-(2-((7-(3-(aminomethyl)phenyl)-3-(trifluoromethyl)benzofuran-5-yl)methoxy)-4-fluorophenyl)acetic acid] |
| < 1000 nM | NCc1cccc(-c2cc(COc3cc(F)ccc3CC(=O)O)cc3c(C(F)(F)F)coc23)c1F [Compound 487b, 2-(2-((7-(3-(aminomethyl)-2-fluorophenyl)-3-(trifluoromethyl)benzofuran-5-yl)methoxy)-4-fluorophenyl)acetic acid] |
